Test results from PubChem BioAssay AID2060622 (Molecular Pharmacology Branch, DTP, NCI, 2025).
“And” between values parts separate entries of the source, which are not always exact repeats. Identical values can stand only once.

Tested on: 242566-281-R-J2-PDC complex spheroid viability
Assay: Anticancer human tumor 242566-281-R-J2-PDC patient-derived pancreatic carcinoma cell line growth inhibition [CLK]
Conditions: for viability, T/C: stronger effect = lower value
Summary of the method: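 Patient-derived tumor cells grown as complex spheroids with HUVEC endothelial cells and mesenchymal stem cells, treated with drug combinations. Concentrations descend in half-log steps from near clinical Cmax, or from 10 microM if Cmax unknown.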

[1] = curve of first compound, second compound 0.0316 µM
[2] = curve of first compound, second compound 0.1 µM
[3] = curve of first compound, second compound 0.316 µM
[4] = curve of first compound, second compound 1 µM
[5] = curve of first compound, second compound 3.16 µM
[6] = curve of first compound, second compound 10 µM
[7] = second compound 0.0316 µM, first compound 0.0316 µM
[8] = second compound 0.0316 µM, first compound 0.1 µM
[9] = second compound 0.0316 µM, first compound 0.316 µM
[10] = second compound 0.0316 µM, first compound 1 µM
[11] = second compound 0.0316 µM, first compound 3.16 µM
[12] = second compound 0.0316 µM, first compound 10 µM
[13] = second compound 0.1 µM, first compound 0.0316 µM
[14] = second compound 0.1 µM, first compound 0.1 µM
[15] = second compound 0.1 µM, first compound 0.316 µM
[16] = second compound 0.1 µM, first compound 1 µM
[17] = second compound 0.1 µM, first compound 3.16 µM
[18] = second compound 0.1 µM, first compound 10 µM
[19] = second compound 0.316 µM, first compound 0.0316 µM
[20] = second compound 0.316 µM, first compound 0.1 µM
[21] = second compound 0.316 µM, first compound 0.316 µM
[22] = second compound 0.316 µM, first compound 1 µM
[23] = second compound 0.316 µM, first compound 3.16 µM
[24] = second compound 0.316 µM, first compound 10 µM
[25] = second compound 1 µM, first compound 0.0316 µM
[26] = second compound 1 µM, first compound 0.1 µM
[27] = second compound 1 µM, first compound 0.316 µM
[28] = second compound 1 µM, first compound 1 µM
[29] = second compound 1 µM, first compound 3.16 µM
[30] = second compound 1 µM, first compound 10 µM
[31] = second compound 3.16 µM, first compound 0.0316 µM
[32] = second compound 3.16 µM, first compound 0.1 µM
[33] = second compound 3.16 µM, first compound 0.316 µM
[34] = second compound 3.16 µM, first compound 1 µM
[35] = second compound 3.16 µM, first compound 3.16 µM
[36] = second compound 3.16 µM, first compound 10 µM
[37] = second compound 10 µM, first compound 0.0316 µM
[38] = second compound 10 µM, first compound 0.1 µM
[39] = second compound 10 µM, first compound 0.316 µM
[40] = second compound 10 µM, first compound 1 µM
[41] = second compound 10 µM, first compound 3.16 µM
[42] = second compound 10 µM, first compound 10 µM
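Further: spheroids exposed to compounds for 7 days before readout.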
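Wherever viability, T/C is given: 100% = DMSO vehicle control wells.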

## C=C(F)C(=O)N1CCN(c2nc(OCC3CCCN3C)nc3c2CCN(c2cccc4cccc(Cl)c24)C3)CC1CC#N (stereo not drawn) + CNC(=O)c1ccc(Nc2nc(OC3CCCC3)c3c(-c4ccc5nc(C)oc5c4)c[nH]c3n2)c(OC)c1
[1]
  IC50: 5780 nM
[2]
  IC50: 5430 nM
[3]
  IC50: 4990 nM
[4]
  IC50: 3340 nM
[5]
  IC50: 1130 nM
[6]
  IC50: 107 nM
[7]
  viability, T/C: 95.6%
[8]
  viability, T/C: 101%
[9]
  viability, T/C: 108%
[10]
  viability, T/C: 101%
[11]
  viability, T/C: 119%
[12]
  viability, T/C: 0.23%
[13]
  viability, T/C: 108%
[14]
  viability, T/C: 78.5%
[15]
  viability, T/C: 83.4%
[16]
  viability, T/C: 105%
[17]
  viability, T/C: 94.4%
[18]
  viability, T/C: 0.19%
[19]
  viability, T/C: 82.2%
[20]
  viability, T/C: 76.3%
[21]
  viability, T/C: 69.7%
[22]
  viability, T/C: 88.6%
[23]
  viability, T/C: 95%
[24]
  viability, T/C: 0.63%
[25]
  viability, T/C: 73.3%
[26]
  viability, T/C: 64.4%
[27]
  viability, T/C: 65.5%
[28]
  viability, T/C: 65%
[29]
  viability, T/C: 52.7%
[30]
  viability, T/C: 0.17%
[31]
  viability, T/C: 63.3%
[32]
  viability, T/C: 51.1%
[33]
  viability, T/C: 50.8%
[34]
  viability, T/C: 53.6%
[35]
  viability, T/C: 19.6%
[36]
  viability, T/C: 0.18%
[37]
  viability, T/C: 54.4%
[38]
  viability, T/C: 45.2%
[39]
  viability, T/C: 50%
[40]
  viability, T/C: 43.9%
[41]
  viability, T/C: 16%
[42]
  viability, T/C: 0.24%

## NC(=O)C(=Cn1cnc(-c2cc(C(F)(F)F)cc(C(F)(F)F)c2)n1)c1cncnc1
Compound 0.00949 µM
  viability, T/C: 108% and 96.6%
Compound 0.03 µM
  viability, T/C: 103%
Compound 0.0949 µM
  viability, T/C: 99.7% and 142%
Compound 0.3 µM
  viability, T/C: 99% and 152%
Compound 0.949 µM
  viability, T/C: 55.8% and 101%
Compound 3 µM
  viability, T/C: 25.7% and 58.9%
Curve of compound
  IC50: 1190 nM and > 3000 nM

## CC(=O)O[C@H]1C(=O)[C@@]2(C)[C@H]([C@H](OC(=O)c3ccccc3)[C@]3(O)C[C@H](OC(=O)[C@H](O)[C@@H](NC(=O)c4ccccc4)c4ccccc4)C(C)=C1C3(C)C)[C@]1(OC(C)=O)CO[C@@H]1C[C@@H]2O + CN1CCN(c2cc(C(=O)Nc3cc4cc(-c5cnn(C)c5)ccc4cn3)ccn2)CC1
[1]
  IC50: < 31.6 nM
[2]
  IC50: < 31.6 nM
[3]
  IC50: < 31.6 nM
[4]
  IC50: < 31.6 nM
[5]
  IC50: < 31.6 nM
[6]
  IC50: < 31.6 nM
[7]
  viability, T/C: 37%
[8]
  viability, T/C: 33.4%
[9]
  viability, T/C: 28.9%
[10]
  viability, T/C: 26.7%
[11]
  viability, T/C: 32.2%
[12]
  viability, T/C: 34.8%
[13]
  viability, T/C: 43.7%
[14]
  viability, T/C: 29.1%
[15]
  viability, T/C: 27.7%
[16]
  viability, T/C: 25.2%
[17]
  viability, T/C: 29.1%
[18]
  viability, T/C: 28.6%
[19]
  viability, T/C: 15.9%
[20]
  viability, T/C: 15.5%
[21]
  viability, T/C: 15.1%
[22]
  viability, T/C: 17.2%
[23]
  viability, T/C: 25%
[24]
  viability, T/C: 31.3%
[25]
  viability, T/C: 5.85%
[26]
  viability, T/C: 4.53%
[27]
  viability, T/C: 5.01%
[28]
  viability, T/C: 4.32%
[29]
  viability, T/C: 5.32%
[30]
  viability, T/C: 5.54%
[31]
  viability, T/C: 7.09%
[32]
  viability, T/C: 7.07%
[33]
  viability, T/C: 7.24%
[34]
  viability, T/C: 7.25%
[35]
  viability, T/C: 7.67%
[36]
  viability, T/C: 7.22%
[37]
  viability, T/C: 1.45%
[38]
  viability, T/C: 1.31%
[39]
  viability, T/C: 1%
[40]
  viability, T/C: 1.28%
[41]
  viability, T/C: 1.57%
[42]
  viability, T/C: 1.05%

## O=c1[nH]cc(F)c(=O)[nH]1
Compound 0.0316 µM
  viability, T/C: 103% and 83.7%
Compound 0.1 µM
  viability, T/C: 104% and 86%
Compound 0.316 µM
  viability, T/C: 95.3% and 77.2%
Compound 1 µM
  viability, T/C: 67.9% and 91.2%
Compound 3.16 µM
  viability, T/C: 56.6% and 65%
Compound 10 µM
  viability, T/C: 52.4% and 53.3%
Curve of compound
  IC50: > 10000 nM
